We go through 14 molecules from paper PMC7680422 (European journal of medicinal chemistry, 2020).

The nature of data set [1]: Phase I metabolic stability in rat liver microsomes. Format: in vitro ADME.
A short description of data set [2]: Phase I metabolic stability in mouse liver microsomes. Format: in vitro ADME. For orientation: Liver microsomes are a subcellular fraction often used to study metabolism.
Another data set has as its system Swiss Webster mice. Nature of the data set: Locomotor activity studies in mice. As to conditions: i.p., doses up to 30 mg/kg, distance travelled.
The target in data set [3] is dopamine transporter (DAT) (Rattus norvegicus, UniProt P23977). The data set is described as follows: DAT binding assay, [3H]WIN35,428, rat striatum membranes.
Sequence of dopamine transporter (DAT) (P23977 whole entry): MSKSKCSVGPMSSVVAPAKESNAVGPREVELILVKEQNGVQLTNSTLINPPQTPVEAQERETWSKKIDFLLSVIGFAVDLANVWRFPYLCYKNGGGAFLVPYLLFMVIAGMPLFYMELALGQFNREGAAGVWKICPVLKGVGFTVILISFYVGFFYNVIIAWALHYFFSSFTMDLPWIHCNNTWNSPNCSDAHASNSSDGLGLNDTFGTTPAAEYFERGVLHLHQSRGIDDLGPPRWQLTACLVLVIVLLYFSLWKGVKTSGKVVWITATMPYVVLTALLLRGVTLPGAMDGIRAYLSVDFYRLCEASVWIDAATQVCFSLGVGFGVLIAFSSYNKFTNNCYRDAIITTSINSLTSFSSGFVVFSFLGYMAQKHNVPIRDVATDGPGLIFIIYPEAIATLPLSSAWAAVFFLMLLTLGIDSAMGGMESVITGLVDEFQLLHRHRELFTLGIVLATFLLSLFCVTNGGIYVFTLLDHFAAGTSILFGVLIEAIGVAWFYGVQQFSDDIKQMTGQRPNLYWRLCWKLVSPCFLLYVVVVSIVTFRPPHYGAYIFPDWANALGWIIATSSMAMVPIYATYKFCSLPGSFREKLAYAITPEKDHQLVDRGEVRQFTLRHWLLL
The subject of data set [4] is methamphetamine self-administration. Particulars: short access and long access groups; cited from earlier work.

Entries after “also recorded” stand apart in the source; their conditions may differ.

Regarding `Fc1ccc(CN2CCC(NCCSC(c3ccc(F)cc3)c3ccc(F)cc3)CC2)cc1` [Compound 6b, N-(2-((Bis(4-fluorophenyl)methyl)thio)ethyl)-1-(4-fluorobenzyl)piperidin-4-amine], the “metabolic stability / susceptibility to phase I metabolism (in words)” value (“metabolic stability / susceptibility” for short) in data set [1] was “relatively metabolically stable”.

`O=C(c1ccc(F)cc1)N1CCC(NCC[S+]([O-])C(c2ccc(F)cc2)c2ccc(F)cc2)CC1` (stereo not shown) [Compound 21b, (4-((2-((Bis(4-fluorophenyl)methyl)sulfinyl)ethyl)amino)piperidin-1-yl)(4-fluorophenyl)methanone]: the “metabolic stability / susceptibility” value in data set [1] was “relatively metabolically stable”; in data set [2], “susceptibility to phase I metabolism; also recorded: significantly less stable”. Besides, in the data set on Swiss Webster mice, the “stimulation of ambulatory activity (in words)” value (shortened to “stimulation”) is “only minimal stimulation of ambulatory activity”.

Take `O=C(c1ccccc1)N1CCC(NCC[S+]([O-])C(c2ccc(F)cc2)c2ccc(F)cc2)CC1` (stereo not shown) [Compound 21a, (4-((2-((Bis(4-fluorophenyl)methyl)sulfinyl)ethyl)amino)piperidin-1-yl)(phenyl)methanone]: the “DAT over SERT selectivity” value in data set [3] is on record as about 100 fold.

Regarding `OC(Cc1ccccc1)CN1CCC(NCCSC(c2ccc(F)cc2)c2ccc(F)cc2)CC1` (stereo not shown) [Compound 10, 1-(4-((2-((Bis(4-fluorophenyl)methyl)thio)ethyl)amino)piperidin-1-yl)-3-phenylpropan-2-ol], the “metabolic stability / susceptibility” value in data set [1] was “relatively metabolically stable”.

With `O=C(c1ccc(F)cc1)N1CCC(NCCSC(c2ccc(F)cc2)c2ccc(F)cc2)CC1` [Compound 19b, (4-((2-((Bis(4-fluorophenyl)methyl)thio)ethyl)amino)piperidin-1-yl)(4-fluorophenyl)methanone], the “metabolic stability / susceptibility” value in data set [1] is “less stable; also recorded: susceptibility to phase I metabolism”.

On to `CC(O)CN1CCN(CCSC(c2ccc(F)cc2)c2ccc(F)cc2)CC1` (stereo not shown) [Compound 3a], for which the “attenuation of methamphetamine self-administration (in words)” value (from here on “attenuation”) in data set [4] is recorded as “effective only in the long access group”.

Take `[O-][S+](CCN1CCN(CC(O)Cc2ccccc2)CC1)C(c1ccc(F)cc1)c1ccc(F)cc1` (stereo not shown) [Compound 2]: in data set [4], the “attenuation” value was “not effective in either rodent population”.

With `OC(CNC1CCN(CCSC(c2ccc(F)cc2)c2ccc(F)cc2)CC1)Cc1ccccc1` (stereo not shown) [Compound 16, 1-((1-(2-((Bis(4-fluorophenyl)methyl)thio)ethyl)piperidin-4-yl)amino)-3-phenylpropan-2-ol], the “metabolic stability / susceptibility” value in data set [1] is “relatively metabolically stable”.

`O=C(c1ccccc1)N1CCC(NCCSC(c2ccc(F)cc2)c2ccc(F)cc2)CC1` [Compound 19a, (4-((2-((Bis(4-fluorophenyl)methyl)thio)ethyl)amino)piperidin-1-yl)(phenyl)methanone]: in data set [1], the “metabolic stability / susceptibility” value is “less stable; also recorded: susceptibility to phase I metabolism”.

Regarding `[O-][S+](CCNC1CCN(CC(O)Cc2ccccc2)CC1)C(c1ccc(F)cc1)c1ccc(F)cc1` (stereo not shown) [Compound 11, 1-(4-((2-((Bis(4-fluorophenyl)methyl)sulfinyl)ethyl)amino)piperidin-1-yl)-3-phenylpropan-2-ol], the “metabolic stability / susceptibility” value in data set [1] is “less stable; also recorded: susceptibility to phase I metabolism”.

For `[O-][S+](CCNC1CCN(Cc2ccc(F)cc2)CC1)C(c1ccc(F)cc1)c1ccc(F)cc1` (stereo not shown) [Compound 7, N-(2-((Bis(4-fluorophenyl)methyl)sulfinyl)ethyl)-1-(4-fluorobenzyl)piperidin-4-amine], the “metabolic stability / susceptibility” value in data set [1] is on record as “relatively metabolically stable”; in data set [2] it was “susceptibility to phase I metabolism; also recorded: significantly less stable”. In addition, the “stimulation” value in the data set on Swiss Webster mice is “only minimal stimulation of ambulatory activity”.

For the molecule `CC(O)CN1CCN(CC[S+]([O-])C(c2ccc(F)cc2)c2ccc(F)cc2)CC1` (stereo not shown) [Compound 1], in data set [4], the “attenuation” value is recorded as “effective in attenuating this behavior in both groups”.

On to `COC(=O)[C@H]1[C@@H](OC(=O)c2ccccc2)C[C@@H]2CC[C@H]1N2C` [cocaine, reference compound], for which, in the data set on Swiss Webster mice, the “stimulation” value is “large, significant increase in ambulatory activity”.

As for `O=C(c1ccc(F)cc1F)N1CCC(NCCSC(c2ccc(F)cc2)c2ccc(F)cc2)CC1` [Compound 33, (4-((2-((Bis(4-fluorophenyl)methyl)thio)ethyl)amino)piperidin-1-yl)(2,4-difluorophenyl)methanone], the “metabolic stability / susceptibility” value in data set [2] is reported as “susceptibility to phase I metabolism; also recorded: significantly less stable”. In addition, the “stimulation” value in the data set with Swiss Webster mice is listed as “only minimal stimulation of ambulatory activity”.
